SMILES	melting point
CN(CCO)Cc1cc(NC(=N)c2cccs2)ccc1C1CCCC1 [Example 30, N-(4-Cyclopentyl-3-{[(2-Hydroxyethyl)(Methyl)Amino]Methyl}Phenyl)-2-Thiophenecarboximidamide]	116 to 118 °C
N=C(Nc1ccc(C2CCCC2)c(CN2CCC[C@H]2CO)c1)c1cccs1 [Example 31, N-(4-Cyclopentyl-3-{[(2S)-2-(Hydroxymethyl)Pyrrolidinyl]Methyl}Phenyl)-2-Thiophenecarboximidamide]	132 to 133 °C
N=C(Nc1ccc(OC2CCCC2)c(CN2CCC[C@@H]2CO)c1)c1cccs1 [Example 21, N-(4-(Cyclopentyloxy)-3{[(2R)-2-(Hydroxymethyl)Pyrrolidinyl]Methyl}Phenyl)-2-Thiophenecarboximidamide]	126 to 127 °C
